# Reference: paper PMC11302729, “Repurposing Hsp90 inhibitors as antimicrobials targeting two-component systems identifies compounds leading to loss of bacterial membrane integrity” (Microbiology Spectrum, 2024)
# Values joined by “and” are separate entries in the source; they are usually repeats but may differ in a detail not shown here. Equal values may be shown once. Read-outs that look alike come from different tables or passages of the source.
# What was measured:
# Type in all cases: cell-based
# [1] = tested on: Staphylococcus aureus str. Newman; assay: Minimal inhibitory concentration (microdilution) against S. aureus; settings: for MIC S. aureus: Table ST3
# Procedure: (§1) Staphylococcus aureus str. Newman, Enterococcus faecalis vanA (strain E0155), Enterococcus faecium vanA (strain E1654), Escherichia coli ATCC 25922, Escherichia coli D21f2 with a truncated LPS barrier, Escherichia coli JW5503 (ΔtolC) ([49]), Pseudomonas aeruginosa ATCC 27853, and Pasteurella haemolytica ATCC 29701 were grown in Mueller-Hinton Broth (MHB) (Oxoid, Basingstoke, UK) and incubated at 37°C.
# (§2) The minimal inhibitory concentration was determined using the microdilution method following the guidelines of the European Committee on Antimicrobial Susceptibility Testing ([50]). Briefly, a series of twofold dilutions in MHB of each compound were made in a 96-well plate, with final concentrations ranging from 50 to 0.39 µg/mL in 100 µL final volume per well. A hundred microliters of 1:100 dilution of an overnight culture of the correspondent bacteria in MHB was added to each well. Plates were incubated for 18 hours at 37°C. MIC was recorded as the lowest concentration where no growth was detected as measured by optical density at 600 nm (OD600) using Spectramax M5 (Molecular Devices LLC, San Jose, CA, USA). […] Wells containing bacteria with or without 1% DMSO and medium alone were included as controls in every plate.
# [2] = in vitro; settings: human
# Procedure: (§3) HEK293 cells and the human hepatocellular carcinoma cells (HepG2) were routinely cultured in 75-cm^2 culture flasks (Corning Incorporated) on high-glucose Dulbecco’s modified Eagle medium (DMEM) containing glutaMax and phenol red (Gibco) supplemented with 1% penicillin/streptomycin (Gibco) and 10% fetal bovine serum (FBS) (Gibco). Cells were maintained at 37°C and 5% CO2.
# (§4) Cytotoxicity assays with HEK293 and HepG2 cells were performed in 96-well plates seeded with 5 × 10^4 cells/well and incubated for 24 hours to reach 80%–90% confluency. Exterior wells were filled with only medium to prevent evaporation. Culture medium was removed from the cells, and 100 µL of exposure medium [high-glucose DMEM without phenol red (Gibco)] was added to avoid a potential interaction between FBS components or antibiotics and tested compounds. A twofold dilution series of compounds in exposure medium (range 100–3.2 μg/mL) was made in a separate 96-well plate, and 100 µL of each of these dilutions was added to the assay plates for 24 hours at 37°C in the presence of 5% CO2. Control wells contained cells with DMEM, DMEM + 1% DMSO (vehicle control), or DMEM + 20% DMSO. Wells without cells were also included as negative control. After exposure, the medium was replaced with 100 µL 10% Alamar Blue (Invitrogen) in exposure medium. After 45 min incubation at 37°C and 5% CO2, fluorescence was measured on a Spectramax M5 plate reader at λex = 541 nm, λem = 590 nm. Cell viability compared with the vehicle control was calculated, and inhibition curves for each compound were fitted (non-linear curve fit, four variables, bottom constrained = 0) in Prism 9 (GraphPad Software, San Diego, USA).
# [3] = tested on: HEK293 cells; assay: in vitro; settings: for Selectivity Index: LC50/MIC (HEK293 / S. aureus); for LC20: human, 24 h
# Procedure: as §3, §4
# [4] = tested on: Enterococcus faecium vanA (strain E1654); assay: MIC (microdilution) against E. faecium; settings: Enterococcus faecium, read-out: MIC E. faecium
# Procedure: as §1, §2
# [5] = tested on: Enterococcus faecalis vanA (strain E0155); assay: MIC (microdilution) against E. faecalis; settings: Enterococcus faecalis, read-out: MIC E. faecalis
# Procedure: as §1, §2
# [6] = tested on: Pasteurella haemolytica ATCC 29701; assay: MIC (microdilution) against P. haemolytica; settings: Mannheimia haemolytica
# Procedure: as §1, §2
# [7] = tested on: Pseudomonas aeruginosa ATCC 27853; assay: MIC (microdilution) against P. aeruginosa; settings: Pseudomonas aeruginosa, ATCC27853; Table ST1; read-out: MIC P. aeruginosa
# Procedure: as §1, §2
# [8] = tested on: Escherichia coli ATCC 25922; assay: MIC (microdilution) against E. coli; settings: Escherichia coli, ATCC25922; Table ST1; read-out: MIC E. coli
# Procedure: as §1, §2
# [9] = tested on: Escherichia coli JW5503 (ΔtolC); assay: MIC (microdilution) against E. coli JW5503; settings: Escherichia coli, read-out: MIC E. coli JW5503
# Excerpt: (§5) We also tested the inhibitory activity of compounds in two different E. coli mutants: (i) E. coli JW5503 that lacks TolC efflux pumps and (ii) E. coli D21f2 that has a defective LPS inner core increasing permeability of the outer membrane. E. coli D21f2 has a slightly higher susceptibility to DPP compounds than E. coli ATCC25922.
# as §1, §2
# [10] = tested on: S. aureus str. Newman; assay: Membrane permeability using SYTOX-Green, flow cytometry; settings: for % FITC stained bacteria 0.5 xMIC: 0.5× MIC; for % FITC stained bacteria 0.5 xMIC / % FITC stained bacteria 1 xMIC / % FITC stained bacteria 2 xMIC: 5 min exposure; for % FITC stained bacteria 1 xMIC: 1× MIC; for % FITC stained bacteria 2 xMIC: 2× MIC; for Membrane damage: if considered to cause membrane damage to S. aureus
# Procedure: S. aureus str. Newman was grown to exponential phase (OD600 = 0.4) in MHB media. […] Nisin (Sigma-Aldrich) and novobiocin (Sigma-Aldrich) were used as positive and negative controls for membrane permeabilization, and stained and unstained untreated controls were also included in each assay. After exposure, samples were centrifuged at 4,000 r.p.m. for 5 min and resuspended in PBS. Bacteria were dyed by adding the fluorescent nuclear stain SYTOX Green (Molecular Probes, Invitrogen) to a final concentration of 0.5 µM and incubating for 5 min in the dark. Samples were centrifuged again and resuspended with PBS to remove unbound stain. Three hundred microliters of each sample was transferred to a clean well in a 96-well clear-bottom plate (Corning Incorporated). Fluorescence was measured in CytoFLEX flow cytometer (Beckman Coulter, Brea, CA, USA) using the green (FITC) channel with the excitation wavelength at 488 nm. Overlay histograms were created with CytExpert Software (Beckman Coulter, Brea, CA, USA).
# [11] = tested on: sheep red blood cells; assay: Haemolysis assay; settings: for Haemolysis: if considered to cause haemolysis to red blood cells
# Procedure: The hemolysis assay was adapted from the study by Evans et al. ([65]). Briefly, sheep RBC 10% washed pooled cells in PBS (Rockland Immunochemicals, Limerick, PA, USA) were diluted 1:5 to give a final concentration of 2% RBCs in PBS. […] A non-treated control, 1% DMSO (vehicle control), and complete cell lysis control (Triton-X 2%) were included in each assay. After exposure samples were centrifuged at 4°C at 1,000 g for 15 min and 100 µL of supernatant transferred to a clean well in a 96-well, clear, flat-bottom plate (Corning Incorporated). Released hemoglobin was measured by absorption at 540 nm using a Spectramax M5 plate reader. The experiments were performed in quadruplicate. The percentage of hemolysis was calculated as follows:
# Hemolysis=A540nm,testcondition−A540nm,DMSOcontrol/A540nm,TritonXControl−A540nm,DMSOcontrol
# [12] = tested on: HEK293 cells; assay: Cell imaging of HEK293 cells; settings: for cells in G2/M phase: HEK293, LC20, 24 hours exposure, DMSO control 2.68% ± 1.31%; for Morphological changes of HEK293 cells: LC20, 24 hours exposure, 40× amplification
# Procedure: HEK293 cells were plated in 24-well plates on exposure medium for 24 hours (500,000 cells/well). Cells were exposed to a subset of compounds at a lethal concentration of 20% (LC20). After 24 hours exposure, cells were fixed with 2% glutaraldehyde for 15 min, washed with water, permeabilized with 0.5% Triton-X, washed twice with water, and stained with Toluidine blue 0.3%. For 100× amplification, cells were harvested by pipetting up and down in 250 µL of exposure medium. Cells from three wells treated with the same compound were pooled and centrifuged for 5 min at 1,500 r.p.m. The cell pellet was fixed in 0.1 M cacodylate buffer containing 2% glutaraldehyde (vol/vol) (pH 7.4). After 1 hour on ice, the pellet was washed with 0.1 M cacodylate buffer and fixed in 0.1 M cacodylate buffer containing 1% osmium tetroxide (wt/vol). After a further hour on ice, the cell pellet was embedded in hard Epon and 1-µm slides were cut and stained with 1% toluidine blue and 1% borax (wt/vol). Cell abnormalities were assessed by microscopy using a Leica DM6B light microscope (Leica Microsystems B.V., Amsterdam, the Netherlands) at 100× magnification.
# [13] = tested on: Escherichia coli D21f2 with a truncated LPS barrier; assay: MIC (microdilution) against E. coli D21f2; settings: read-out: MIC E coli D21f2
# Excerpt: as §5, §1, §2
# [14] = Staphylococcus aureus, NEWMAN, Fig 2
# [15] = Staphylococcus aureus, NEWMAN, Fig 2, value in parentheses
# [16] = Table ST3, value in parentheses
# [17] = ATCC29701, read-out: MIC P. haemolytica, Table ST1
# [18] = ATCC29701, Table ST1, read-out: MIC P. haemolytica
Structure (SMILES),"MIC [1, 14] [µg/mL]","MIC [1, 15] [µM]",MIC S. aureus [1] [µg/mL],"MIC [1, 16] [µM]",CC50 at 24 h [2],Selectivity Index [3],MIC [4] [µg/mL],MIC [5] [µg/mL],"MIC [6, 17] [µg/mL]",MIC [7] [µg/mL],MIC [8] [µg/mL],MIC [9] [µg/mL],% FITC stained bacteria 0.5 xMIC [10] [%],% FITC stained bacteria 1 xMIC [10] [%],% FITC stained bacteria 2 xMIC [10] [%],Membrane damage [10],Haemolysis [11],MIC [13] [µg/mL],further results
CCOc1ccc(-c2[nH]nc(C(F)(F)F)c2-c2ccc(OC)cc2)c(O)c1 [DPP-14],6.25,16.4,6.25,16.45,6.57 µg/mL and 17.3 µM,1.05,12.5,12.5,> 250,> 250,> 250,3.13,28.78,44.58,56.62,YES,–,–,LC20 [3]: 3 µg/mL; RBC hemolysis [11]: not hemolytic; cells in G2/M phase [12]: 12.24% ± 1.23%; Morphological changes of HEK293 cells [12]: no morphological changes
CCOc1ccc(-c2[nH]nc(C(F)(F)F)c2-c2ccccc2)c(O)c1 [DPP-3],6.25,17.9,6.25,17.86,25.6 µg/mL and 76.5 µM,4.1,> 250,> 250,50,> 250,> 250,1.56,35.78,49.41,58.28,YES,YES,–,–
Oc1ccccc1-c1[nH]nc(C(F)(F)F)c1-c1ccc(Cl)cc1 [DPP-22],1.56,4.59,1.56,4.59,2.89 µg/mL and 8.5 µM,1.85,12.5,12.5,–,> 250,> 250,1.56,–,–,–,–,YES,25,"MIC [6, 18]: 12.5 µg/mL"
Oc1ccc(-c2onc(C(F)(F)F)c2-c2ccc(Cl)cc2)c(O)c1 [DPP-11],3.12,8.76,3.12,8.76,3.41 µg/mL and 9.61 µM,1.10,12.5,12.5,62.5,> 250,> 250,1.56,24.77,28.12,57.97,YES,YES,25,–
CCOc1ccc(-c2[nH]nc(C(F)(F)F)c2-c2ccc(OC)c(OC)c2)c(O)c1 [DPP-20],12.5,30.5,12.5,30.49,16.5 µg/mL and 40.3 µM,1.32,25,25,> 250,> 250,> 250,6.25,31.90,40.99,50.97,YES,–,–,LC20 [3]: 3 µg/mL; RBC hemolysis [11]: not hemolytic; cells in G2/M phase [12]: 26.25% ± 4.68%; Morphological changes of HEK293 cells [12]: no morphological changes
Oc1cc(OCc2ccccc2)ccc1-c1[nH]nc(C(F)(F)F)c1-c1ccc(Cl)cc1 [DPP-8],1.56,3.51,1.56,3.51,14.2 µg/mL and 32 µM,9.14,3.12,1.56,250,> 250,> 250,12.5,12.26,32.15,36.10,YES,YES,25,–
FC(F)(F)c1n[nH]c(-c2ccccc2)c1-c1ccc(Cl)cc1 [DPP-21],1.56,4.8,1.56,4.8,–,4.56,12.5,12.5,–,> 250,> 250,1.56,31.51,35.84,51.03,YES,YES,> 250,"MIC [6, 18]: 12.5 µg/mL"
